Experimental data as given in the supplement of paper PMC11208160.

Assay: recombinant barcode read abundance after kanamycin selection (control-corrected) (log10(CPM+1)); higher = more efficient recombination; sequences stand for … in AGTGCAGAGAAAATCGGCCAGTTTTCTCTGCCTGCAGTCCGCATGCCGT…AGATTTATGCAGCGGACTGCCTTTCTCCCAAAGTGATAAACCGGACAGTATCATGGACCGGTTTTCCCGGTAATCCGTATTTGCAAGGTTGGTTTCACT; site = the 11-nt target
Summary of the method: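 Pooled E. coli screen pairing targets with IS621 bridge RNA target-binding loops. Each oligo (promoter, target, barcode, J23119-driven first 104 bridge RNA bases) was Gibson-cloned into a vector with the remaining 73 bp and T7-inducible recombinase, then co-electroporated with a donor plasmid. Two replicates each were plated on chloramphenicol/ampicillin LB agar (control) or chloramphenicol/ampicillin/kanamycin with 0.1 mM IPTG. Recombination efficiency is recombinant-junction barcode counts as CPM, averaged, control-corrected, reported as log10(CPM+1).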
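Further: IS621 recombinase and bridge RNA in Escherichia coli cells.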

Row | Sequence | recombinant barcode read abundance (log10)
1 | AGTTCTCCTTGGGTTCTAACCTGTTGCCG (site GAGCAGGCTAA) | 0.0339
2 | AGTTGTCCTTGGGTTCTAACCTGTTGCAT (site AGTTGTCCTAA) | 0.0625
3 | AGTTGTCCTTGGGTTCTAACCTGTTGCAT (site AGTTGTCCTAC) | 0.0713
4 | AGTTGTCCTTGGGTTCTAACCTGTTGCAT (site AGTTGTCCTAG) | 0.0326
5 | AGTTGTCCTTGGGTTCTAACCTGTTGCAT (site AGTTGTCCTAT) | 0.219
6 | AGTTGTCCTTGGGTTCTAACCTGTTGCTT (site AGTTGTCCTAA) | 0.126
7 | AGTTGTCCTTGGGTTCTAACCTGTTGCTT (site AGTTGTCCTAC) | 0.0653
8 | AGTTGTCCTTGGGTTCTAACCTGTTGCTT (site AGTTGTCCTAG) | 0.0387
9 | AGTTGTCCTTGGGTTCTAACCTGTTGCTT (site AGTTGTCCTAT) | 0.0416
10 | AGTTTCACTTGGGTTCTAACCTGTTGCCT (site AGTTACACTAG) | 0.11
11 | AGTTTCACTTGGGTTCTAACCTGTTGCCT (site AGTTCCACTAG) | 0.0621
12 | AGTTTCACTTGGGTTCTAACCTGTTGCCT (site AGTTGCACTAG) | 0.0233
13 | AGTTTCACTTGGGTTCTAACCTGTTGCCT (site AGTTTCACTAG) | 0.0755
14 | ATAAAGACTTGGGTTCTAACCTGTTGCCT (site ATAAAGACTAG) | 1.96
15 | ATAAAGACTTGGGTTCTAACCTGTTGCCT (site ATCAAGACTAG) | 0.181
16 | ATAAAGACTTGGGTTCTAACCTGTTGCCT (site ATGAAGACTAG) | 0.212
17 | ATAAAGACTTGGGTTCTAACCTGTTGCCT (site ATTAAGACTAG) | 0.586
18 | ATAAATGCTTGGGTTCTAACCTGTTGCCT (site ATAAATGCTAG) | 1.34
19 | ATAAATGCTTGGGTTCTAACCTGTTGCCT (site ATAAGGGCTAG) | 0.0428
20 | ATAACAGCTTGGGTTCTAACCTGTTGCCT (site ATAAAAGCTAG) | 0.224
21 | ATAACAGCTTGGGTTCTAACCTGTTGCCT (site ATAACAGCTAG) | 1.43
22 | ATAACAGCTTGGGTTCTAACCTGTTGCCT (site ATAAGAGCTAG) | 0.279
23 | ATAACAGCTTGGGTTCTAACCTGTTGCCT (site ATAATAGCTAG) | 0.0968
24 | ATAACGGCTTGGGTTCTAACCTGTTGCCT (site ATAACGGCTAG) | 0.434
25 | ATAACGGCTTGGGTTCTAACCTGTTGCCT (site GACGGACCTTA) | 0.0648
26 | ATAAGTGCTTGGGTTCTAACCTGTTGCCA (site ATAAGTGCTTG) | 1.15

Row | Sequence | recombinant barcode read abundance (log10)
27 | ATAAGTGCTTGGGTTCTAACCTGTTGCCA (site GTGAGTGCTTG) | 0.0783
28 | ATAATAGCTTGGGTTCTAACCTGTTGCAT (site ATAATAGCTAT) | 2.02
29 | ATAATAGCTTGGGTTCTAACCTGTTGCAT (site GTAATAGCTAT) | 0.0687
30 | ATACGGACTTGGGTTCTAACCTGTTGCTA (site ATAAGGACTTA) | 0.0991
31 | ATACGGACTTGGGTTCTAACCTGTTGCTA (site ATACGGACTTA) | 2.04
32 | ATACGGACTTGGGTTCTAACCTGTTGCTA (site ATAGGGACTTA) | 0.186
33 | ATACGGACTTGGGTTCTAACCTGTTGCTA (site ATATGGACTTA) | 0.0991
34 | ATACTCTCTTGGGTTCTAACCTGTTGCCT (site AGACTCTCTAG) | 0
35 | ATACTCTCTTGGGTTCTAACCTGTTGCCT (site ATACTCTCTAG) | 2.43
36 | ATAGAGTCTTGGGTTCTAACCTGTTGCCG (site ATAGAGTCTCG) | 1.95
37 | ATAGAGTCTTGGGTTCTAACCTGTTGCCG (site GCTCCTCCTAT) | 0.173
38 | ATAGGTACTTGGGTTCTAACCTGTTGCTT (site ATAGGTACTAA) | 1.65
39 | ATAGGTACTTGGGTTCTAACCTGTTGCTT (site CTAGGTACTAA) | 0.534
40 | ATAGGTCCTTGGGTTCTAACCTGTTGCTG (site ATAGGTCCTCA) | 2.91
41 | ATAGGTCCTTGGGTTCTAACCTGTTGCTG (site ATGGGTCCTCG) | 0.0247
42 | ATATGAGCTTGGGTTCTAACCTGTTGCCA (site ATATGAGCTTG) | 0.884
43 | ATATGAGCTTGGGTTCTAACCTGTTGCCA (site TTATGAGCTCG) | 0.0938
44 | ATATGTACTTGGGTTCTAACCTGTTGCCG (site ATATGTACTCG) | 1.07
45 | ATATGTACTTGGGTTCTAACCTGTTGCCG (site ATATGTACTTG) | 0.167
46 | ATATGTCCTTGGGTTCTAACCTGTTGCAG (site ATAGGACCTCT) | 0
47 | ATATGTCCTTGGGTTCTAACCTGTTGCAG (site ATATGTCCTCT) | 1.88
48 | ATATTATCTTGGGTTCTAACCTGTTGCCA (site ATATGATCTAG) | 0.0788
49 | ATATTATCTTGGGTTCTAACCTGTTGCCA (site ATATTATCTTG) | 0.29
50 | ATATTGTCTTGGGTTCTAACCTGTTGCCA (site ATATTGCCTAG) | 0.0374
51 | ATATTGTCTTGGGTTCTAACCTGTTGCCA (site ATATTGTCTTG) | 0.611
52 | ATCACTACTTGGGTTCTAACCTGTTGCCT (site ATCACTACTAG) | 0.207

Row | Sequence | recombinant barcode read abundance (log10)
53 | ATCACTACTTGGGTTCTAACCTGTTGCCT (site CTTACTACTAG) | 0.0823
54 | ATCCGCTCTTGGGTTCTAACCTGTTGCCT (site ATCCGCTCTAG) | 2.06
55 | ATCCGCTCTTGGGTTCTAACCTGTTGCCT (site CTCCGCTCTAG) | 1
56 | ATCCGCTCTTGGGTTCTAACCTGTTGCCT (site GTCCGCTCTAG) | 0.0221
57 | ATCCGCTCTTGGGTTCTAACCTGTTGCCT (site TTCCGCTCTAG) | 0.771
58 | ATCCTACCTTGGGTTCTAACCTGTTGCTT (site ATCCTACCTAA) | 1.72
59 | ATCCTACCTTGGGTTCTAACCTGTTGCTT (site ATCGTACCTCA) | 0.113
60 | ATCGAGTCTTGGGTTCTAACCTGTTGCCA (site ATCGAGTCTTG) | 0.276
61 | ATCGAGTCTTGGGTTCTAACCTGTTGCCA (site CAAATCCCTAC) | 0.112
62 | ATCGGAACTTGGGTTCTAACCTGTTGCCT (site ATCGGAACTAG) | 1.01
63 | ATCGGAACTTGGGTTCTAACCTGTTGCCT (site ATCGGACCTAG) | 0.0301
64 | ATCGGAACTTGGGTTCTAACCTGTTGCCT (site ATCGGAGCTAG) | 0.13
65 | ATCGGAACTTGGGTTCTAACCTGTTGCCT (site ATCGGATCTAG) | 0.209
66 | ATCGGACCTTGGGTTCTAACCTGTTGCTG (site ATCGGACCTCA) | 0.901
67 | ATCGGACCTTGGGTTCTAACCTGTTGCTG (site TATAATGCTAC) | 0.148
68 | ATCGGAGCTTGGGTTCTAACCTGTTGCAG (site ATCGGAGCTCA) | 0.504
69 | ATCGGAGCTTGGGTTCTAACCTGTTGCAG (site ATCGGAGCTCC) | 0.166
70 | ATCGGAGCTTGGGTTCTAACCTGTTGCAG (site ATCGGAGCTCG) | 0.294
71 | ATCGGAGCTTGGGTTCTAACCTGTTGCAG (site ATCGGAGCTCT) | 0.953
72 | ATCGGAGCTTGGGTTCTAACCTGTTGCCG (site ATCGGAGCTCA) | 0.165
73 | ATCGGAGCTTGGGTTCTAACCTGTTGCCG (site ATCGGAGCTCC) | 0.0715
74 | ATCGGAGCTTGGGTTCTAACCTGTTGCCG (site ATCGGAGCTCG) | 0.497
75 | ATCGGAGCTTGGGTTCTAACCTGTTGCCG (site ATCGGAGCTCT) | 0.123
76 | ATCGGTCCTTGGGTTCTAACCTGTTGCCT (site ATAGGTCCTAG) | 0.476
77 | ATCGGTCCTTGGGTTCTAACCTGTTGCCT (site ATCGGTCCTAG) | 1.29
